US9840532B2, “5′-substituted nucleoside compounds” (Eli Lilly and Company, priority 2015, dated 2017)
pEC50, pIC50: −log10 of the molar value.

How the values were obtained:
PRMT5/MEP50 complex = target: T1, PRMT5/MEP50 complex (Homo sapiens, UniProt O14744); experiment: PRMT5/MEP50 SPA Assay; type: biochemical; details: Mean ± SEM
T1 construct: FLAG; made in house; host or cells: baculovirus/Sf9 insect cells
Description: The purpose of this assay is to measure the ability of a test compound to inhibit the enzyme activity of PRMT5 in vitro by inhibiting the catalytic activity of PRMT5/MEP50 complex, indicated by the transfer of radiolabeled methyl-^3H to a substrate peptide derived from the N-terminal sequence of the human histone H4.
Express the PRMT5/MEP50 enzyme complex using a baculovirus/Sf9 system and purify using anti-FLAG affinity chromatography, (essentially as described in preparations by Stephen Antonysamy, Zahid Bonday, Robert M. Campbell, Brandon Doyle, Zhanna Druzina, Tarun Gheyi, Bomie Han, Louis N. Jungheim, Yuewei Qian, Charles Rauch, Marijane Russell, J. Michael Sauder, Stephen R. Wasserman, Kenneth Weichert, Francis S. Willard, Aiping Zhang, and Spencer Emtage; Crystal structure of the human PRMT5:MEP50 complex, Proceedings of the National Academy of Sciences, 2012, Volume 109, pages 17960-17965.) Dilute purified enzyme to a working stock of 6.67 nM in assay buffer (50 mM TRIZMA® preset pH ˜8.5, 1 mM DTT, 0.005% TWEEN® 80 0.01% HSA).
Add enzyme (15 μL/well) to a 384-well assay plate (CORNING® cat. #3706). Add test compounds from a 10 mM DMSO stock solution to the plate as serial dilutions in assay buffer to achieve a final test concentrations ranging from 50.0 μM to 25 nM. Create a reaction mix containing 1 μM Histone H4 biotinylated peptide substrate, H-[…]-biotin (SEQ ID NO: 1), prepared by FastMoc chemistry with an ABI 431 peptide, and 4 μM ^3H-SAM; 15 Ci/mmol, 0.366 mCi/mL, 37 μM, PERKIN-ELMER® cat. # NET155000MC) in assay buffer. To each plate well, add 5 μL of the peptide/^3H-SAM reaction mix to yield final assay conditions of 5 nM enzyme, 1 ^3H-SAM, 250 nM peptide and 50 μM maximum test compound concentration with 0.5% DMSO, at a final volume of 20 μL. Incubate the assay for 2 hr at room temperature. Stop the reaction with the addition of guanidine HCl (5 M, 20 μL, Sigma cat. # G3272).
Suspend strepavidin YSI SPA scintillation beads (PERKIN-ELMER®, #RPNQ0012) at 1 mg/mL in pH ˜8.5 Tris buffer containing 5 M guanidine HCl. To each well, add 20 μL of this bead suspension, agitate the resulting mixtures, and incubate for 1 hr at room temperature prior to measuring their radioactivity, using a microplate liquid scintillation counter as an indication of the formation of methylated peptide product.
Generate raw data from the radioactivity measurement as counts per min (CPM). Employ an uninhibited control (DMSO) and maximum inhibited control (250 μM dehydrosinefungin, (isolated essentially as described in Berry, D. R. & Abbott, B. J. Incorporation of carbon-14-labeled compounds into sinefungin (A9145), a nucleoside antifungal antibiotic. J. Antibiot. 1978 (31) 185-191 and references cited therein)). […]

Molt 4 cells = experiment: Xenograft tumor model, acute lymphoblastic leukemia (Molt 4); type: in vivo, mouse; details: 60 mg/kg BID for 30 days, oral gavage
Experimental: The purpose of this assay is to measure in a mouse model of cancer the reduction in tumor volume in response to test compound administration.
Grow A375 (melanoma) cells in DMEM/High glucose (HYCLONE™ cat. # SH30022) with 10% HI FBS (GIBCO® cat. #10082-147). Grow Will-2 (DLBCL) cells in RPMI 1640 with L-glutamine and 20% heat inactivated FBS. Grow Namalwa (Burkitt's lymphoma) cells (ATCC) in RPMI 1640 media supplemented with L-glutamine, 25 mM HEPES (GIBCO® 22400-089), 1 mM sodium pyruvate and 7.5% FBS. Grow Molt 4 cells in RPMI 1640 with L-glutamine, 25 mM HEPES [GIBCO 22400-089], 1 mM sodium pyruvate, and 10% FBS. Harvest cells and inject subcutaneously onto the rear flank of nude mice (A375: 5×10^6 cells/animal, mixed 1:1 with MATRIGEL®; Will-2; 1×10^7 cells/animal; Namalwa: 2×10^6 cells/animal; Molt 4: : 5×10^6 cells/animal, mixed 1:1 with MATRIGEL®). When tumors are established (approximately 200 mm^3, 7-21 days after implant), randomize animals, and group them into control and test groups. Formulate the test compound in 1% HEC/0.25% TWEEN®-80/0.05% Antifoam. Administer test compound and vehicles by oral gavage. Determine tumor response by tumor volume measurement (caliper) performed twice a week during the course of treatment and report as the percent inhibition of tumor volume versus the vehicle control group.

[1] = tested on: PRMT5-dependent alternative splicing of MDM4 in A375 melanoma cells; experiment: MDM4 Exon5/6 qPCR Assay in A375 Tumor Cells; type: cell-based; details: Homo sapiens, A-375, 72 hr, Mean ± SEM
Experimental: Culture A375 tumor cells (ATCC), a melanoma cancer cell line, to 70%-90% confluence in T150 flasks with the growth medium (DMEM; HYCLONE™ #SH30022 with 10% FBS; GIBCO® 10082-147 or equivalent). Treat the cells with standard trypsin/EDTA treatment for 3 min and aspirate and wash with PBS to release the adherent cells from the culture flask. Seed the cells into a 96 well plate (Costar 3596) at 5000/well in growth medium (90 μL). Incubate the plate overnight at 37° C. and 5% CO2 and treat the cells with test compound at serial dilutions ([…], final DMSO addition of 0.2% yield) for 72 hr. Measure activity relative to maximum (2.0 μM of Example 2 and minimum (0.2% DMSO) controls.
On Day 5 after incubation, remove the medium from the culture plates and wash the cells twice with cold PBS (150 μL/well). Prepare Lysis Working Reagent from the TAQMAN® Gene Expression Cells-to-CT Kit (INVITROGEN™ cat. # AM1729) by dilution of DNAse 1 into Lysis Solution at 1/100. Add Lysis Working Reagent (50 μL/well) to the cell plates, mix well, and incubate at room temperature for 5 min Add kit stop solution (5 μL) to each well, mix the wells, and incubate for 2 min at room temperature. Prepare Reverse Transcriptase Master Mix in the following volume ratios; RT buffer: Nuclease-free water: RT Enzyme at 62.5:31.25:6.25. Add RT mix (48 μL/well) to each well of a 96-well NUNC™ plate (THERMO SCIENTIFIC™ #260860). Add RT mix (20 μL) and each cell lysate sample (5 μL) into a 384 PCR plate (Clear Optical Reaction Plate, cat. #4309849, APPLIED BIOSYSTEMS®) quadrant 1 and add a second addition of RT Mix and cell lysate to quadrant 3. For the RT reaction, seal the plates and then place them in a thermal cycler set at 37° C. for 60 min; 95° C. for 5 min; stop at 4° C. For qPCR, prepare MDM4 exon 5 primers (Life Technologies Hs00967240-ml) and exon 6 primers (Life Technologies Hs00967242-ml) separately in the following volume ratios of RT mix: H2O: exon probe at 10:6:1. Add Exon 5 (17 μL) to odd columns of a 384 PCR plate and add exon 6 (17 μL) to the even columns. Add cDNA (3 μL, from the RT plate) by quadrant stamping to each well of the qPCR plate containing the 17 μL exon primer solution. In this manner, perform qPCR for both exons on cDNAs from a single RT reaction on an individual cell lysate. Seal the plates, spin, and place on a real-time PCR instrument (Life Technologies ViiA7 Real-Time PCR). […]
Retrieve CT data from the real-time PCR reader and perform the following calculations, where “CPD” is the value from compound-treated samples, and “DMSO” is the minimum control sample, using an Excel template: (Exon 6 CT CPD−Exon 6 CT DMSO)−(Exon 5 CT CPD−Exon 5 CT DMSO)=ΔCT 2^(−ΔCT)=Fold Change […]

EOL-1 cells = experiment: Combination with BCL2 inhibitor ABT-199 in AML cell lines, 7-day cell proliferation assay; type: cell-based; details: EOL-1, treatment duration 7 Days; single agent or combination; read-out: Absolute IC50 (cell proliferation)
Experimental: (§1) On day 1, plate GDM-1 [ATCC®, maintained throughout in GDM-1 assay medium: RPMI-1640 medium/20% heat-inactivated FBS (GIBCO®)] and EOL-1 cells [ATCC®, maintained throughout in EOL-1 assay medium: RPMI-1640 medium/10% heat-inactivated FBS (GIBCO®)] at 4000 and 10000 cells/well (100 μL/well) respectively, in a 96-well assay plate (BD FALCON® 35-3219). Incubate the plates in a 37° C. incubator (5% CO2) for 18-24 hr. On day 2, prepare 2.0% DMSO with assay medium (as indicated above or RPMI-1640/20% heat-inactivated FBS and RPMI-1640/10% FBS for GDM-1 and EOL-1, respectively) and add 100 μL to columns 3-12 in a preparation plate. Prepare test compounds ABT-199 at 10 μM in 2% DMSO and PRMT5 inhibitor Example 1 at 25 μM in 2% DMSO and dispense into wells A2 and B2, respectively, followed by serial dilution (1:3, 10 points) to wells A11 and B11, respectively. For combinational treatment, serially dilute test compound examples at 1:2 in assay medium (as indicated above or RPMI-1640/20% heat-inactivated FBS and RPMI-1640/10% FBS for GDM-1 and EOL-1, respectively) in wells C2-C11 (0.1 μM) to H2-H11, then serially dilute test compound ABT-199 1:3 from C2-H2 (1.0 μM) to C11-H11. […] Incubate plates for 10-15 min at room temperature before reading. Measure luminescence using the PERKIN-ELMER® ENVISION® Multi-Label Reader. […]

GDM-1 cells = experiment: Combination with BCL2 inhibitor ABT-199 in AML cell lines, 4-day cell proliferation assay; type: cell-based; details: GDM-1, treatment duration 4 Days; single agent or combination; read-out: Absolute IC50 (cell proliferation)
Experimental: as §1

T1 sequence (O14744 whole entry): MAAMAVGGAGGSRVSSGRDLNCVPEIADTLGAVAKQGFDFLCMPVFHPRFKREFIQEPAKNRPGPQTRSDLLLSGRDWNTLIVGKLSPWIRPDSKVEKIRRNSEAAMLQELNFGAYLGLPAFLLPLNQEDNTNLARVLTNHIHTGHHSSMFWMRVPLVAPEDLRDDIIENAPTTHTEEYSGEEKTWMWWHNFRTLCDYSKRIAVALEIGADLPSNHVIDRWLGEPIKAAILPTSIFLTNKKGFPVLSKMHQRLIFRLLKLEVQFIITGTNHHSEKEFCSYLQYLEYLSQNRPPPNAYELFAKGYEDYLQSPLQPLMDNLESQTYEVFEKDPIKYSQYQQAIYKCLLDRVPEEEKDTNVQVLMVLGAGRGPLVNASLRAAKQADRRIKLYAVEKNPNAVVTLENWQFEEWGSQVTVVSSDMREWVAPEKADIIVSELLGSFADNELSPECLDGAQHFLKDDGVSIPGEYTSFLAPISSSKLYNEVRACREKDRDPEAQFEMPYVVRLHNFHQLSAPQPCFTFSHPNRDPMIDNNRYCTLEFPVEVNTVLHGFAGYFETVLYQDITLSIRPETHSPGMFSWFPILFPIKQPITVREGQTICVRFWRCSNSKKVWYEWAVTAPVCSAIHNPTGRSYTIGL
T1 sequence (Q9BQA1 whole entry partner): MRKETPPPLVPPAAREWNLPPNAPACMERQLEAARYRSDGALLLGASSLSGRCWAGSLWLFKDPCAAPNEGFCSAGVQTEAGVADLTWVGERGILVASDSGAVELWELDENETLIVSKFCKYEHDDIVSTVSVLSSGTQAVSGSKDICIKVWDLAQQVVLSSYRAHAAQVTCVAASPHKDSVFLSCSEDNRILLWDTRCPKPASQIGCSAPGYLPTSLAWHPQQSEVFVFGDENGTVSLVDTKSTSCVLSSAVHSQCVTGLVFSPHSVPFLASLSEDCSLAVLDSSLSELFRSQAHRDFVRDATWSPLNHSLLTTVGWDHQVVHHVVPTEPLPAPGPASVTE

Row | Compound | pIC50 (PRMT5/MEP50 complex) | percent inhibition of tumor volume versus vehicle (Molt 4 cells) [%] | pEC50 [1] | pIC50 (EOL-1 cells) | pIC50 (GDM-1 cells)
1 | Nc1ncnc2c1ccn2[C@@H]1O[C@H]([C@H](O)c2ccc(Cl)c(OC3CC3)c2)[C@@H](O)[C@H]1O [Example 4, (2R,3R,4S,5R)-2-(4-aminopyrrolo[2,3-d]pyrimidin-7-yl)-5-[(R)-[4-chloro-3-(cyclopropoxy)phenyl]-hydroxy-methyl]tetrahydrofuran-3,4-diol] | 8.28 | −75 | 5.98 |  | 
2 | ABT-199 [reference compound] |  |  |  | 7.52 | 8.15
